Measurements taken from ChEMBL document CHEMBL1153563, “Comparative in vitro activities of caspofungin and micafungin, determined using the method of the European Committee on Antimicrobial Susceptibility Testing, against yeast isolates obtained in France in 2005-2006” (2008).

Columns and labels:
Type in all cases: functional
[1] = test system: Candida albicans; assay: Antifungal activity against Candida albicans after 24 to 48 hrs by AFST-EUCAST based broth microdilution method
[2] = test system: Nakaseomyces glabratus; assay: Antifungal activity against Candida glabrata after 24 to 48 hrs by AFST-EUCAST based broth microdilution method
[3] = test system: Candida parapsilosis; assay: Antifungal activity against Candida parapsilosis ATCC 22019 after 24 to 48 hrs by AFST-EUCAST based broth microdilution method; conditions: Lodderomyces parapsilosis
[4] = test system: Candida tropicalis; assay: Antifungal activity against Candida tropicalis after 24 to 48 hrs by AFST-EUCAST based broth microdilution method
[5] = test system: Meyerozyma guilliermondii; assay: Antifungal activity against Candida guilliermondii after 24 to 48 hrs by AFST-EUCAST based broth microdilution method
[6] = test system: Pichia kudriavzevii; assay: Antifungal activity against Candida krusei ATCC 6258 after 24 to 48 hrs by AFST-EUCAST based broth microdilution method
[7] = test system: Kluyveromyces marxianus; assay: Antifungal activity against Candida kefyr after 24 to 48 hrs by AFST-EUCAST based broth microdilution method
[8] = test system: [Candida] haemuloni; assay: Antifungal activity against Candida haemulonii after 24 to 48 hrs by AFST-EUCAST based broth microdilution method; conditions: Candidozyma haemuli
[9] = test system: Clavispora lusitaniae; assay: Antifungal activity against Candida lusitaniae after 24 to 48 hrs by AFST-EUCAST based broth microdilution method
[10] = test system: Meyerozyma caribbica; assay: Antifungal activity against Candida fermentati after 24 to 48 hrs by AFST-EUCAST based broth microdilution method
[11] = test system: Candida dubliniensis; assay: Antifungal activity against Candida dubliniensis after 24 to 48 hrs by AFST-EUCAST based broth microdilution method
[12] = test system: Yarrowia lipolytica; assay: Antifungal activity against Candida lipolytica after 24 to 48 hrs by AFST-EUCAST based broth microdilution method
[13] = test system: Debaryomyces hansenii; assay: Antifungal activity against Candida famata after 24 to 48 hrs by AFST-EUCAST based broth microdilution method
[14] = test system: Wickerhamomyces anomalus; assay: Antifungal activity against Candida pelliculosa after 24 to 48 hrs by AFST-EUCAST based broth microdilution method; conditions: Hansenula anomala
[15] = test system: Diutina rugosa; assay: Antifungal activity against Candida rugosa after 24 to 48 hrs by AFST-EUCAST based broth microdilution method
[16] = test system: Cyberlindnera jadinii; assay: Antifungal activity against Candida utilis after 24 to 48 hrs by AFST-EUCAST based broth microdilution method; conditions: Williopsis jadinii
[17] = test system: [Candida] inconspicua; assay: Antifungal activity against Candida inconspicua after 24 to 48 hrs by AFST-EUCAST based broth microdilution method; conditions: Pichia inconspicua
[18] = test system: [Candida] intermedia; assay: Antifungal activity against Candida intermedia after 24 to 48 hrs by AFST-EUCAST based broth microdilution method; conditions: Sungouiella intermedia
[19] = test system: Candida africana; assay: Antifungal activity against Candida africana after 24 to 48 hrs by AFST-EUCAST based broth microdilution method
[20] = test system: Pichia fermentans; assay: Antifungal activity against Candida lambica after 24 to 48 hrs by AFST-EUCAST based broth microdilution method
[21] = test system: Nakaseomyces nivariensis; assay: Antifungal activity against Candida nivariensis after 24 to 48 hrs by AFST-EUCAST based broth microdilution method
[22] = test system: Pichia norvegensis; assay: Antifungal activity against Candida norvegensis after 24 to 48 hrs by AFST-EUCAST based broth microdilution method
[23] = test system: Kluyveromyces lactis; assay: Antifungal activity against Candida sphaerica after 24 to 48 hrs by AFST-EUCAST based broth microdilution method
[24] = test system: Saccharomyces cerevisiae; assay: Antifungal activity against Saccharomyces cerevisiae after 24 to 48 hrs by AFST-EUCAST based broth microdilution method
[25] = test system: Geotrichum; assay: Antifungal activity against Geotrichum after 24 to 48 hrs by AFST-EUCAST based broth microdilution method
[26] = test system: Cyberlindnera saturnus; assay: Antifungal activity against Williopsis saturnus after 24 to 48 hrs by AFST-EUCAST based broth microdilution method
[27] = test system: Kodamaea ohmeri; assay: Antifungal activity against Kodamaea ohmeri after 24 to 48 hrs by AFST-EUCAST based broth microdilution method
[28] = test system: Zygosaccharomyces; assay: Antifungal activity against Zygosaccharomyces after 24 to 48 hrs by AFST-EUCAST based broth microdilution method
[29] = test system: Cryptococcus neoformans; assay: Antifungal activity against […] after 24 to 48 hrs by AFST-EUCAST based broth microdilution method
[30] = test system: Trichosporon; assay: Antifungal activity against Trichosporon after 24 to 48 hrs by AFST-EUCAST based broth microdilution method
[31] = test system: Rhodotorula mucilaginosa; assay: Antifungal activity against Rhodotorula mucilaginosa after 24 to 48 hrs by AFST-EUCAST based broth microdilution method

CC[C@H](C)C[C@H](C)CCCCCCCCC(=O)N[C@H]1C[C@@H](O)[C@@H](NCCN)NC(=O)[C@@H]2[C@@H](O)CCN2C(=O)[C@H]([C@H](O)CCN)NC(=O)[C@H]([C@H](O)[C@@H](O)c2ccc(O)cc2)NC(=O)[C@@H]2C[C@@H](O)CN2C(=O)[C@H]([C@@H](C)O)NC1=O [CASPOFUNGIN]
0.25 µg/mL: MIC50 [7]
16 µg/mL: MIC90 [24] | MIC90 [25] | MIC90 [26] | MIC90 [27] | MIC90 [28] | MIC90 [29] | MIC50 [30] | MIC50 [31]
2 µg/mL: MIC50 [3] | MIC90 [3] | MIC50 [5] | MIC90 [5] | MIC90 [6] | MIC90 [8] | MIC90 [10]
8 µg/mL: MIC50 [29]
1 µg/mL: MIC90 [2] | MIC90 [4] | MIC50 [6] | MIC50 [8] | MIC50 [9] | MIC90 [9] | MIC50 [10] | MIC90 [11] | MIC90 [12] | MIC90 [13] | MIC90 [14] | MIC90 [15] | MIC90 [16] | MIC90 [17] | MIC90 [18] | MIC90 [19] | MIC90 [20] | MIC90 [21] | MIC90 [22] | MIC90 [23] | MIC50 [24] | MIC50 [25] | MIC50 [26] | MIC50 [27] | MIC50 [28]
0.5 µg/mL: MIC50 [1] | MIC90 [1] | MIC50 [2] | MIC50 [4] | MIC90 [7] | MIC50 [11] | MIC50 [12] | MIC50 [13] | MIC50 [14] | MIC50 [15] | MIC50 [16] | MIC50 [17] | MIC50 [18] | MIC50 [19] | MIC50 [20] | MIC50 [21] | MIC50 [22] | MIC50 [23]
